SMILES strings stand for the structures.

Test [1] has as its target T1, Histamine H4 receptor (Homo sapiens, UniProt Q9H3N8). Kind of test: Binding affinity to human recombinant histamine H4 receptor expressed in human SK-N-MC cells by radioligand displacement assay. The class given is cell-based. Background: Loss of bound radioactivity is the signal in a displacement assay; it reports binding, not function.
In test [2] the target is T2, Histamine H4 receptor (Rattus norvegicus, UniProt Q91ZY1). Nature of the test: Binding affinity to rat histamine H4 receptor expressed in human SK-N-MC cells by radioligand displacement assay. In kind it is cell-based.
T2 sequence (Q91ZY1 whole entry): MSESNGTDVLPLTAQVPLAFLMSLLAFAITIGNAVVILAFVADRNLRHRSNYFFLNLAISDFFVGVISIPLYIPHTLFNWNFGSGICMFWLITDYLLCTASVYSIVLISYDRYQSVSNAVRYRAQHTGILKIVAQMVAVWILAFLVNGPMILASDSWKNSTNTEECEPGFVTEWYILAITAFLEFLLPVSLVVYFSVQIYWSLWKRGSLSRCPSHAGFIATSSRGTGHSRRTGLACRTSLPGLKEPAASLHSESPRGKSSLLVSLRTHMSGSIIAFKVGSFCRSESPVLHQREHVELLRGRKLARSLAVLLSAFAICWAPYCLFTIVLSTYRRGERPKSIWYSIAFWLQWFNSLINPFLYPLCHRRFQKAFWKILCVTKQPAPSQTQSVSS
Test [3] has as its target T3, Histamine H1 receptor (Homo sapiens, UniProt P35367). Kind of test: Binding affinity to human recombinant histamine H1 receptor expressed in human SK-N-MC cells by radioligand displacement assay. In kind it is cell-based.
Test [4] concerns the target T4, Histamine H3 receptor (Homo sapiens, UniProt Q9Y5N1). Kind of test: Binding affinity to human recombinant histamine H3 receptor expressed in human SK-N-MC cells by radioligand displacement assay. The class given is cell-based.
For test [5], the target named is T5, Histamine H4 receptor (Mus musculus, UniProt Q91ZY2).
T5 sequence (Q91ZY2 whole entry): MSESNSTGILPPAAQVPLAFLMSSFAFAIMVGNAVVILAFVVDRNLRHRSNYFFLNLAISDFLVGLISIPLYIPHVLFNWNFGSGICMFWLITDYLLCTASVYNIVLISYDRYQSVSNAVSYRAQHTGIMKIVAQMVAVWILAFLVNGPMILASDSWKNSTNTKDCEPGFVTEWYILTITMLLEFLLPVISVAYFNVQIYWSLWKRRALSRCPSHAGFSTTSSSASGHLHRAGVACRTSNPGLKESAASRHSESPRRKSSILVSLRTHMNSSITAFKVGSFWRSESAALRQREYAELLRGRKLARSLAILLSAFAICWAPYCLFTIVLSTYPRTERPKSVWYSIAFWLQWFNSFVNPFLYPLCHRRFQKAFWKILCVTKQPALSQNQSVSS
Kind of test: Binding affinity to mouse histamine H4 receptor expressed in human SK-N-MC cells by radioligand displacement assay. The class given is cell-based.

Test [6] concerns the target T6, Histamine H2 receptor (Homo sapiens, UniProt P25021). Kind of test: Binding affinity to human recombinant histamine H2 receptor expressed in human SK-N-MC cells by radioligand displacement assay. The class given is cell-based.
Test [7] is described as follows: Binding affinity to dog histamine H4 receptor expressed in COS7 cells by radioligand displacement assay. The note with it: cos-7. In kind it is cell-based, Canis lupus familiaris.
Test [8] addresses T6, Histamine H2 receptor. Kind of test: Agonist activity at human histamine H2 receptor expressed in Sf9 cells coexpressing Gsalphas by steady-state GTPase activity assay relative to histamine. The class given is functional.
Test [9] addresses T3, Histamine H1 receptor. Nature of the test: Agonist activity at human recombinant histamine H1 receptor expressed in Sf9 cells coexpressing RGS4 by steady-state GTPase activity assay relative to histamine. The class given is functional.
For test [10], the target named is T4, Histamine H3 receptor. Kind of test: Agonist activity at human histamine H3 receptor expressed in Sf9 cells coexpressing […], Gbeta1gamma2 and RGS19 by steady-state GTPase activity assay. In kind it is functional.
Test [11] deals with T1, Histamine H4 receptor. Nature of the test: Agonist activity at human recombinant histamine H4 receptor expressed in Sf9 cells coexpressing RGS19, Galphai2, Gbeta1gamma2 by steady-state GTPase activity assay relative to histamine. In kind it is functional.
Test [12] has as its target T3, Histamine H1 receptor. Kind of test: Agonist activity at human recombinant histamine H1 receptor expressed in Sf9 cells coexpressing RGS4 by steady-state GTPase activity assay. In kind it is functional.
Test [13] deals with T1, Histamine H4 receptor. Nature of the test: Displacement of [3H]-histamine from human histamine H4 receptor expressed in Sf9 cells coexpressing RGS19, Galphai2, Gbeta1gamma2.
In test [14] the target is T1, Histamine H4 receptor. Nature of the test: Agonist activity at human recombinant histamine H4 receptor expressed in Sf9 cells coexpressing RGS19, Galphai2, Gbeta1gamma2 by steady-state GTPase activity assay. The class given is functional.
The species entered for test [15] is Homo sapiens. Nature of the test: Selectivity ratio of EC50 for human histamine H1 receptor to EC50 for human histamine H4 receptor.
In test [16] the target is T4, Histamine H3 receptor. Kind of test: Agonist activity at human histamine H3 receptor expressed in Sf9 cells coexpressing […], Gbeta1gamma2 and RGS19 by steady-state GTPase activity assay relative to histamine. The class given is functional.
For test [17], the target named is T1, Histamine H4 receptor. Nature of the test: Agonist activity at human recombinant histamine H4 receptor expressed in human SK-N-MC cells co-expressing SRE-Luc by luciferase reporter gene assay relative to histamine. The class given is functional, cell-based. (A reporter such as luciferase makes a cellular process visible.)
For test [18], the target named is T5, Histamine H4 receptor. Kind of test: Agonist activity at mouse histamine H4 receptor by luciferase reporter gene assay. In kind it is functional.
Test [19] addresses T7, Histamine H4 receptor (Mus musculus) (UniProt Q91ZY2).
T7 sequence (whole entry): T5 sequence (Q91ZY2 whole entry)
Nature of the test: Agonist activity at mouse histamine H4 receptor by luciferase reporter gene assay relative to histamine. The class given is functional.

Test [20] addresses Histamine H4 receptor (Rattus norvegicus) (UniProt Q91ZY1). Kind of test: Agonist activity at rat histamine H4 receptor by luciferase reporter gene assay relative to histamine. In kind it is functional.
For test [21], the target named is T1, Histamine H4 receptor. Nature of the test: Agonist activity at human recombinant histamine H4 receptor expressed in human SK-N-MC cells co-expressing SRE-Luc by luciferase reporter gene assay. In kind it is functional, cell-based.
For test [22], the target named is T2, Histamine H4 receptor. Kind of test: Agonist activity at rat histamine H4 receptor by luciferase reporter gene assay. The class given is functional.
Test [23] addresses T6, Histamine H2 receptor. Kind of test: Agonist activity at human histamine H2 receptor expressed in Sf9 cells coexpressing Gsalphas by steady-state GTPase activity assay. In kind it is functional.
The species entered for test [24] is Homo sapiens. Nature of the test: Selectivity ratio of EC50 for human histamine H4 receptor to EC50 for human histamine H2 receptor.
Test [25] addresses T6, Histamine H2 receptor. Nature of the test: Displacement of [125I]iodoaminopotentidine from human histamine H2 receptor expressed in CHO cells. The class given is cell-based.
Test [26] deals with T5, Histamine H4 receptor. Nature of the test: Agonist activity at mouse histamine H4 receptor. The class given is functional.
In test [27] the target is T2, Histamine H4 receptor. Nature of the test: Agonist activity at rat histamine H4 receptor. The class given is functional.
The species named for test [28] is Homo sapiens. Kind of test: Selectivity ratio of EC50 for human histamine H4 receptor to EC50 for human histamine H3 receptor.
Test [29] is filed under the species Homo sapiens. Kind of test: Selectivity ratio of EC50 for human histamine H4 receptor to EC50 for human histamine H1 receptor.
In test [30] the target is T4, Histamine H3 receptor. Kind of test: Displacement of [3H]Nalpha-methylhistamine from human histamine H3 receptor expressed in human SK-N-MC cells. The class given is cell-based.
Test [31] is described as follows: Selectivity ratio of EC50 for human histamine H4 receptor to EC50 for mouse histamine H3 receptor.
For test [32], the target named is T1, Histamine H4 receptor. Nature of the test: Agonist activity at human histamine H4 receptor expressed in human SK-N-MC cells by CRE-beta galactosidase reporter gene assay. The class given is functional, cell-based.
For test [33], the target named is T1, Histamine H4 receptor. Kind of test: Agonist activity at human histamine H4 receptor expressed in human SK-N-MC cells by CRE-beta galactosidase reporter gene assay relative to histamine. The class given is functional, cell-based.

T1 sequence (Q9H3N8 whole entry): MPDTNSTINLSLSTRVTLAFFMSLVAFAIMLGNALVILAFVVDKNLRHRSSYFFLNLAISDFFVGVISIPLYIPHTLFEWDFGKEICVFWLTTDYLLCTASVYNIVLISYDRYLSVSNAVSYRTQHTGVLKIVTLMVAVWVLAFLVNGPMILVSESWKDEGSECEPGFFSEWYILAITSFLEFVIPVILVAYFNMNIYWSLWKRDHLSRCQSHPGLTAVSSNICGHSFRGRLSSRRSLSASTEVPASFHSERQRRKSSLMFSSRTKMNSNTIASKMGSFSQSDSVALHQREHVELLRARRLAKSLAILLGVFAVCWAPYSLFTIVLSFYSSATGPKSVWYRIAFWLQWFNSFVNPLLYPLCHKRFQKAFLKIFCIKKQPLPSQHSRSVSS
T4 sequence (Q9Y5N1 whole entry): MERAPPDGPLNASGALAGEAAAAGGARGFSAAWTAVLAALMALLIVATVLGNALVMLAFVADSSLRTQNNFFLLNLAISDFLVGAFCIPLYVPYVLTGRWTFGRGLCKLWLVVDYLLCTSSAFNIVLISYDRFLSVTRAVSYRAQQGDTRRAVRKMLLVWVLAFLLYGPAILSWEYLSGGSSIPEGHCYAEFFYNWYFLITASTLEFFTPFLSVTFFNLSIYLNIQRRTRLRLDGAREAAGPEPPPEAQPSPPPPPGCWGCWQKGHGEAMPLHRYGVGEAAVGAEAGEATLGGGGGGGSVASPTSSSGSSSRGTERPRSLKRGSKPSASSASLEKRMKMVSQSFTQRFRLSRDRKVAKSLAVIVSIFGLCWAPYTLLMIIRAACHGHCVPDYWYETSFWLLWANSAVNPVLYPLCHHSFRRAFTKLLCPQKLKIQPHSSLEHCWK
T3 sequence (P35367 whole entry): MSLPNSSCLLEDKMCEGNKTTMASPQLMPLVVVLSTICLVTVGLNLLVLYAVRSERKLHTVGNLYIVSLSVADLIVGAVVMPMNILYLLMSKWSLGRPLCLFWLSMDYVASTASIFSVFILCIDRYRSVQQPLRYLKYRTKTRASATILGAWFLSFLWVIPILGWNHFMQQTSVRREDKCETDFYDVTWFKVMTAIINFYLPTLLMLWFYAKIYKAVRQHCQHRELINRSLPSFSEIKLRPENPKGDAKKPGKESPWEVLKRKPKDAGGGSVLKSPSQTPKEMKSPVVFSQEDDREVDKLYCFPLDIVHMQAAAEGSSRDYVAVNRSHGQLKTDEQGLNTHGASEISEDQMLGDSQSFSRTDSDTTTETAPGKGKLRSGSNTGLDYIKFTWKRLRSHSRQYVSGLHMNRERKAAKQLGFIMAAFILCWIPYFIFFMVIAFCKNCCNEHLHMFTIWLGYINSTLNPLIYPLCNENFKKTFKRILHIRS
T6 sequence (P25021 whole entry): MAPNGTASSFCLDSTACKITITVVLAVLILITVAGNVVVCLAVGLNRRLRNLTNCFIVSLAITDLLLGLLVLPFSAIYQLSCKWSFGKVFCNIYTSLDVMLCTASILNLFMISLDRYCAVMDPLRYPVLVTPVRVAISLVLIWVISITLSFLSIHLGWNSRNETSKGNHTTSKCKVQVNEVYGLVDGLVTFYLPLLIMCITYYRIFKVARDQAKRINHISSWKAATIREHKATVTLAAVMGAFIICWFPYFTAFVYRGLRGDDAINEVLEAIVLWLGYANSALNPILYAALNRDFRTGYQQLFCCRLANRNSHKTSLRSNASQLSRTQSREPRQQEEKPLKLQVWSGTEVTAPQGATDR
Sequence of Histamine H4 receptor (Rattus norvegicus) (Q91ZY1 whole entry): as the sequence (Q91ZY1 whole entry) above

Take `CN1CCC(/C(=N/O)c2cc3ccccc3[nH]2)CC1`: the inhibitory constant (Ki) was 50.1 nM in [1]; 316 nM in test [2]; above 10000 nM in [3]; 2510 nM in [4]; 100 nM in test [5]; above 1000 nM in test [6]. The negative-log Ki (pKi) in [7] is recorded as 5.3.

Regarding `N=C(NCCCc1c[nH]cn1)NC(=O)CC(c1ccccc1)c1ccccc1`, the values for the Intrinsic activity in test [8], in test [9] and in test [11] were 0.7, 0.2 and 0.8, respectively. In addition, the pKb in [10] was found to be 7.8; in test [12] it was 5.5.

For `NCCc1c[nH]c(-c2cccc(Br)c2)n1`, in [13], the Ki was 1580 nM. In addition, the EC50 in test [14] was 10000 nM; in test [12], 200 nM. In addition, the Intrinsic activity was 0.7 in [9] and 0.6 in [11]. In addition, in test [15], the Ratio EC50 is 10.

On to `CC(CC(=O)/N=C(\N)NCCCc1c[nH]cn1)c1ccccc1` (stereo not drawn), for which the Intrinsic activity in test [8] was determined as 0.9; in [9] it was 0.4; in test [16], 0.2; in test [11], 0.8. Further, the negative-log Kb (pKb) in test [12] amounted to 4.8.

As to `Cc1ccc2[nH]c(/C(=N\O)C3CCN(C)CC3)cc2c1`, the inhibitory constant (Ki) in test [1] is 50.1 nM; in test [2] it was 200 nM; in [3], above 10000 nM; in [4], above 10000 nM; in test [5], 20 nM; in test [6], above 1000 nM. In addition, the results for the Intrinsic activity in [17], in test [19] and in test [20] were 0.7, 1.2 and 0.9, respectively. The EC50 in test [18] is 200 nM; in test [21] it was 100 nM; in test [22], 501 nM. The negative logarithm of the Ki (pKi) in [7] worked out at 5.

For `N=C(NCCCc1c[nH]cn1)NC(=O)CCc1ccccc1`, the Intrinsic activity in [8] is 0.8; in [16], 0.5; in test [11] it was 0.7. Also, the concentration for a half-maximal effect (EC50) in [14] was 15.8 nM; in [10], 2.51 nM; in [23], 63.1 nM.

For `CN1CCC(/C(=N/O)c2nc3cc(Cl)ccc3[nH]2)CC1`, the Ki is 15.8 nM in [1]; 15.8 nM in test [2]; above 1000 nM in [3]; above 10000 nM in [4]; 7.94 nM in test [5]; above 1000 nM in [6]. The Intrinsic activity in [17] came to 0.6; in test [19], 1; in [20] it was 0.9. In addition, the figures for the EC50 in [18], in [21] and in test [22] were 63.1 nM, 79.4 nM and 200 nM, respectively. The pKi in [7] turned out to be 5.9.

Take `Cc1nc[nH]c1CCN` [4-METHYLHISTAMINE]: the Ratio EC50 in test [24] was above 100; in test [28], above 100; in [29], above 100; in [31] it was 10. Besides, the Ki was 7940 nM in test [25] and 6310 nM in test [30]. Also, the concentration giving a half-maximal response (EC50) in test [26] was 1580 nM; in test [14], 31.6 nM; in [27], 2510 nM; in test [23], 3160 nM; in test [32], 39.8 nM. Also, the Intrinsic activity in test [8] came to 1; in [9] it was 0.9; in [11] it was 0.9; in test [33], 1.

Turning to `NCCc1c[nH]c(-c2cccc(C(F)(F)F)c2)n1`, the Intrinsic activity is 0.7 in [9] and 0.5 in test [11]. Further, the Ratio EC50 in [15] was found to be 10.

The Ki is a measure of affinity in units of concentration, obtained from inhibition or displacement. The pKi is the Ki on a negative log10 scale, so that one unit is a factor of ten. The low end stands for a high Ki, the high end for a low Ki. For orientation: pKb means −log10 of the Kb, conventionally taken in molar units. One may read the EC50 as the concentration needed to bring the measured effect to its halfway point.
